From US20030031647A1, “IFN-alpha and amantadine for treating hepatitis C” (priority 1997, published 2003) come the findings set out here.

One data set has as its system Hepatitis C Virus. Description: HCV RNA in cultured PBMC from chronic hepatitis C patients (RT-PCR, AMPLICOR HCV MONITOR assay). Particulars: for Number of cases with HCV RNA Negative / Number of cases with reduction in HCV RNA concentration >25% / Number of cases with reduction in HCV RNA concentration >50% / Number of cases with reduction in HCV RNA concentration >75%: IFN-α2A 0 IU/ml, PBMC, n = 15. It is filed as cell-based, Hepatitis C virus (subtype 1b prevalent) in human PBMC. The protocol: Antiviral Effect of Amantadine and IFN-α2A Against Hepatitis C Virus on Peripheral Blood Mononuclear Cells (PBMC) from Chronic Hepatitis C Patients
Mononuclear cells from patients with chronic hepatitis C (serum anti-HCV and HCV RNA positive with histologically proven chronic hepatitis) were analyzed for the presence of HCV RNA, using reverse transcription and PCR techniques with universal primers from the highly conserved 5′ non-coding region of the HCV genome (Navas et al., J. Hepatol. 21, 182-186 (1994)). Typing and subtyping of HCV genomes were performed by RFLP analysis of PCR products (Navas et al., J. Clin. Microbiol. 21, 317-321(1997)). For the purpose of this study, only cases infected by a single genotype have been considered, in order to minimize the possible interference of multiple genotypes, in the subject population, HCV subtype 1b was prevalent (Pernas et al., J. Gen. Virol. 76, 415-420(1995)). Thus, HCV RNA-positive PBMC obtained from 15 patients have been analyzed in vitro for the effects of treatment. PBMC from 10 matched healthy donors have been used as controls and analyzed similarly.
(§1) PBMC were isolated from heparinized venous blood by Ficoll-Hypaque gradient sedimentation. The interphase PBMC were isolated, washed twice with phosphate-buffered saline, and suspended in RPMI. The viability of these cells was assessed by trypan blue exclusion. PBMC were cultured in duplicate at a concentration of 2×10^6 viable cells/ml in 6-well tissue culture dusters, in a humid atmosphere with 5% CO2 for 7 days. The cultures have been maintained without mitogens (medium alone) or were stimulated with single mitogens (Phytohemagglutinin (PHA) or Lipopolysaccharide (LPS) or with PHA plus LPS (10 μg/ml each)(Martin et al., Cytokine 8, 313-317 (1996)). PBMC proliferation, and the possible drug-induced cytotoxicity, were measured using non-isotopic cell-proliferation and cytotoxicity assays.
The effect of experimental treatments with amantadine alone, in combination with IFN-α2A and those of IFN-α2A alone, have been established by testing HCV RNA in cultured mononuclear cells, compared with untreated PBMC from patients (Martin et al., supra); specificity controls were as described previously by Navas et al. in J. Hepatol. 21, 182-186 (1994). Treatment of mononuclear cells form healthy donors with amantadine alone, in combination with IFN-α2A or with IFN-α2A alone, served as controls. Changes in HCV RNA concentrations were measured by the AMPLICOR™ HCV MONITOR assay (Roche Diagnostic System, Inc., Branchburg).

Another data set concerns PBMC. Kind of data set: PBMC viability, proliferation and cytotoxicity (non-isotopic cell-proliferation and cytotoxicity assays). Type of data set: cell-based, human. The settings on record: for PBMC proliferation: PBMC from healthy donors. The protocol:
as §1

Where [1] appears, read: amantadine 1-5 μM, cultured PBMC from HCV patients and healthy donors.

As for `NC12CC3CC(CC(C3)C1)C2` [Amantadine, tricyclo[3.3.1.1^3,7]decane-1-amine], the “PBMC cultures in which HCV RNA became negative” value with Hepatitis C Virus (2 μM amantadine, 1/15 patients) turned out to be 7%; in the data set with Hepatitis C Virus (5 μM amantadine, 3/15 patients), 20%. Moreover, the “Number of cases with HCV RNA Negative” value in the data set on Hepatitis C Virus (Amantadine 1 μM) is reported as 0; in the data set on Hepatitis C Virus (Amantadine 2 μM) it was 1; in the data set on Hepatitis C Virus (Amantadine 5 μM) it was 3. Also, the “Number of cases with reduction in HCV RNA concentration >25%” value in the data set with Hepatitis C Virus (Amantadine 1 μM) turned out to be 3; in the data set with Hepatitis C Virus (Amantadine 2 μM), 5; in the data set on Hepatitis C Virus (Amantadine 5 μM), 2. In addition, the “Number of cases with reduction in HCV RNA concentration >50%” value in the data set on Hepatitis C Virus (Amantadine 1 μM), in the data set on Hepatitis C Virus (Amantadine 2 μM) and in the data set with Hepatitis C Virus (Amantadine 5 μM) was 2 each time. The “Number of cases with reduction in HCV RNA concentration >75%” value is given as 3 in the data set on Hepatitis C Virus (Amantadine 1 μM), 4 with Hepatitis C Virus (Amantadine 2 μM) and 3 in the data set with Hepatitis C Virus (Amantadine 5 μM). Further, the PBMC proliferation result with PBMC (amantadine 50 μM) was “slightly decreased PBMC proliferation”; in the data set on PBMC (amantadine 500 μM), “marked anti-proliferative effect”. For the same compound, the cell viability result with PBMC (setting [1]) is recorded as “did not affect the cell viability”. Besides, in the data set with PBMC (setting [1]), the response to mitogens entry is given as “minor effects on the response to mitogens”.
